Experimental data as given in patent US9481713B2, “Self-assembling peptides incorporating modifications and methods of use thereof” (Massachusetts Institute of Technology, priority 2010, dated 2016).

Experiments:
[1] = system: human periodontal ligament fibroblasts (HPDLF); assay: Periodontal ligament fibroblast attachment and proliferation on peptide scaffolds; assay type: cell-based; details: periodontal ligament fibroblasts cultured for three weeks
Experimental: (§1) 1% RADA16 solution was obtained as PuraMatrix (3DM Inc./BD Bioscience). VEVK9, VEVK12 and the functionalized peptides were obtained from CPC Scientific (San Jose, Calif.) and dissolved in water at final concentration of 1% […]. The functionalized peptide solutions were then mixed with 1% RADA16, VEVK9 or VEVK12 solution at a ratio of 1:1. Each peptide solution was then loaded in the cell culture plate insert (BD Bioscience, Bedford, Mass.). The medium described below was added to induce hydrogel formation.
(§2) Primary isolated human periodontal ligament fibroblasts were commercially obtained from Lonza Inc. (HPDLF, Walkersville, Md.) and routinely grown in the culture medium (SCGM, Walkersville, Md.) on regular cell culture flask. The cells were plated at 2×10^4 cells on the gel in the inserts. The culture medium was changed every three days. Additional growth factors were not used.
(§3) Following the experiments, the cells on the gel were fixed with 4% paraformaldehyde for 15 min and permeabilized with 0.1% Triton X-100 for 5 min at room temperature. Fluorescent Rhodamin phalloidin and SYTOX® Green (Molecular Probes, Eugene, Oreg.) were used for labeling F-actin and nuclei, respectively. Images were taken using a fluorescence microscope (Axiovert 25, ZEISS) or laser confocal scanning microscope (Olympus FV300).

[2] = system: human periodontal ligament fibroblasts (HPDLF); assay: Periodontal ligament fibroblast migration into peptide scaffolds (confocal microscopy); assay type: cell-based; details: for fibroblast adhesion, proliferation and 3-D migration into scaffold: reconstructed confocal images
Experimental: as §1, §2, §3
The functionalized peptide was obtained from CPC Scientific (San Jose, Calif.) and dissolved in water at final concentration of 1% […] as well. The functionalized peptide solutions were then mix with 1% VEVK9 or VEVK12 solution. The each peptide solution was loaded in the cell culture plate insert (BD Bioscience, Bedford, Mass.). The medium described below was added to induce hydrogel formation.

MMP-2 = target: T1, MMP-2 (Homo sapiens, UniProt P08253); details: reference 19b; cited from earlier work
T1 sequence (P08253 110-660): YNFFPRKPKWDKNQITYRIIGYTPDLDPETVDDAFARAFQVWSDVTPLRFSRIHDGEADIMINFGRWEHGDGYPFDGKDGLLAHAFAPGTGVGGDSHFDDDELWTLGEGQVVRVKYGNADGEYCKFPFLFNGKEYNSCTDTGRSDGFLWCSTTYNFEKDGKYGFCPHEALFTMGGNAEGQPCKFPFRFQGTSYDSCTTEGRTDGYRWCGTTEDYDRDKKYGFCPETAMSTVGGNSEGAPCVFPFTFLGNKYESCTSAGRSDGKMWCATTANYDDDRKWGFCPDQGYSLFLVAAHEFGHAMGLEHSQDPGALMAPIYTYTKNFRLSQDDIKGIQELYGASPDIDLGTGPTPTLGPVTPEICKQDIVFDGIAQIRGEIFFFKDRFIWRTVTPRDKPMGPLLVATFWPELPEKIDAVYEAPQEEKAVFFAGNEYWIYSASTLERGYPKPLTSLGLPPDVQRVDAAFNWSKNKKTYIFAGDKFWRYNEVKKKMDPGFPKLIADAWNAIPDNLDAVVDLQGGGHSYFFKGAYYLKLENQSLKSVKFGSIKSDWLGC

[3] = Tapping mode AFM analysis of nanofiber formation; assay type: physicochemical; details: aqueous solutions
Text: VEVK9 and VEVK12 are simple repeating units of amino acids VEVK (Valine-Glutamate-Valine-Lysine) which self-assemble into a nanofiber structure. The self-assembling peptide VEVK9 was functionalized either with RGD, laminin cell adhesion motifs or an MMP cleavable motif in order to mimic extracellular matrix to enhance cell maintenance and function in cell cultures. The functionalized peptides vPRG, vYIG and vIKV were synthesized with the VEVK9 sequence plus an additional motif added to the C-terminus using solid phase synthesis. One motif contains two repetitions of the RGD sequence (PRGDSGYRGDS (SEQ ID NO: 15)), and the others are cell adhesion motifs of laminin (YIGSR (SEQ ID NO: 5), IKVAV (SEQ ID NO: 6)). Glycine residues were used between the self-assembling motif VEVKVEVKV (SEQ ID NO: 2) and the functional motif as a spaced linker to keep the flexibility of the functional peptides. The MMP-2 cleavable motif (PVGLIG (SEQ ID NO: 11)) was inserted between two VEVK units. In comparison to RADA16-I and its functionalized peptides, these peptides are short sequences, maximum 20 amino acids (in vPRG), and seem to be cost-effective. The peptides were solubilized in water at a concentration of 10 mg/ml (1%, w/v). The peptides readily undergo self-assembly to form soft hydrogels. Mixing with self-assembling peptide VEVK9 or VEVK12 facilitated self-assembly and gelation. […]

[4] = system: human periodontal ligament fibroblasts (HPDLF); assay: Fluorescent immunostaining of type I and type III collagen production on peptide scaffolds; assay type: cell-based; details: six weeks cell culture, compared to RADA16 (FIG. 5)
Experimental: as §2
After the cell fixation, the primary antibody for type I collagen (5% Anti-collagen type I, Millpore, Mass.) was added and incubated at 37° for 40 min, then washing six times with PBS with 1% BSA. The second antibody (0.5% Alexa fluor 488 goat anti-rabbit IgG, Invitrogen) was added and incubated at 37° for another 40 min, then washing as well. After that, the primary antibody for type III collagen (0.5% Anti-collagen type III, Millpore, Mass.) was added and incubated at 37° for 40 min, then washing. Finally, the second antibody (0.5% Alexa fluor 594 goat ant-mouse IgG, Invitrogen) was added and incubated at 37° for another 40 min. Nonspecific staining as a control was performed by omitting primary antibodies.

[5] = system: Human gingival fibroblasts (HGF-1); assay: Gingival fibroblast attachment and migration on peptide scaffolds (selective cell reproduction); assay type: cell-based; details: Example 2 comparison study, HGF-1 (FIG. 6)
Experimental: We tested the selective cell reproduction property of the functional scaffolds, using two periodontal cells, periodontal ligament fibroblasts and gingival fibroblasts.
Human gingival fibroblasts were commercially obtained from ATCC (HGF-1) and routinely grown in the culture medium (DMEM+10% FBS) on regular cell culture flask. The cells were plated at 2×10^4 cells on the gel in the inserts. The culture medium was changed every three days.

Ac-VEVKVEVKVGIKVAVCONH2 [vIKV]
cell attachment and morphology [1]: good attachment and extension
fibroblast adhesion, proliferation and 3-D migration into scaffold [2]: migrate into them in the same manner

(RADA)3PVGLIG (RADA)3 (RADARADARADAPVGLIGRADARA)
degradability by MMP-2 (MMP-2): degradable by MMP-2

Ac-VEVKVEVKVGYIGSRCONH2 [vYIG]
cell attachment and morphology [1]: good attachment and extension
fibroblast adhesion, proliferation and 3-D migration into scaffold [2]: migrate into them in the same manner

Ac-VEVKVEVKVEVK-CONH2 (Ac-VEVKVEVKVEVK-NH2) [VEVK12, 1% peptide F solution]
cell attachment and morphology [1]: sparse and have a rounded morphology
formation of nanofibers [3]: formed nanofibers

Ac-VEVKVEVKVGPRGDSGYRGDSGCONH2 [vPRG]
cell attachment and morphology [1]: good attachment and extension
fibroblast adhesion, proliferation and 3-D migration into scaffold [2]: significant increases in fibroblast proliferation and migration

Ac-VEVKGPVGLIGVEVKCONH2 [vPVG]
fibroblast adhesion, proliferation and 3-D migration into scaffold [2]: significant increases in fibroblast proliferation and migration

Ac-VEVKVEVKV-CONH2 (Ac-VEVKVEVKV-NH2) [VEVK9, 1% peptide E solution]
cell attachment and morphology [1]: sparse and have a rounded morphology
fibroblast adhesion, proliferation and 3-D migration into scaffold [2]: Only a few fibroblasts adhered

Ac(RADA)4CONH2 (Ac-RADARADARADARADA-NH2) [RADA16, 1% peptide A solution; self assembling motif, obtained as PuraMatrix]
type I and type III collagens production [4]: not to produce collagens
gingival fibroblast attachment and migration [5]: did not show migration in both fibroblasts
periodontal ligament fibroblast attachment and migration ([2]; Example 2 comparison study (FIG. 6)): did not show migration in both fibroblasts
